What all share (format): in vivo
Assay [1] has as its system Amaranthus retroflexus (AMARE). The assay is described as follows: Example B post-emergence herbicidal activity, glasshouse pot test. To be noted: 312 h, rate 1000 g/ha, evaluated after 13 days, read-out: herbicidal damage AMARE (100=total damage to plant; 0=no damage to plant). How it is done: (§1) Seeds of a variety of test species were sown in standard soil in pots. After cultivation for one day (pre-emergence) or after 8 days cultivation (post-emergence) under controlled conditions in a glasshouse (at 24/16° C., day/night; 14 hours light; 65% humidity), the plants were sprayed with an aqueous spray solution derived from the formulation of the technical active ingredient in acetone/water (50:50) solution containing 0.5% Tween 20 (polyoxyethelyene sorbitan monolaurate, CAS RN 9005-64-5). The test plants were then grown in a glasshouse under controlled conditions in a glasshouse (at 24/16° C., day/night; 14 hours light; 65% humidity) and watered twice daily. After 13 days for pre and post-emergence, the test was evaluated (100=total damage to plant; 0=no damage to plant). Alopecurus myosuroides (ALOMY), Avena fatua (AVEFA), Setaria faberi (SETFA), Echinochloa crus-galli (ECHCG), Solanum nigrum (SOLNI) and Amaranthus retroflexus (AMARE) Post-Emergence Activity

The subject of assay [2] is Setaria faberi (SETFA). The assay is described as above. Particulars: 312 h, rate 1000 g/ha, evaluated after 13 days, read-out: herbicidal damage SETFA (100=total damage to plant; 0=no damage to plant). How it is done:
as §1

Assay [3] relates to Echinochloa crus-galli (ECHCG). The description is as above. Particulars: 312 h, rate 1000 g/ha, evaluated after 13 days, read-out: herbicidal damage ECHCG (100=total damage to plant; 0=no damage to plant). As for the experimental part: as §1
For assay [4], the system named is Solanum nigrum (SOLNI). The description is as above. To be noted: 312 h, rate 1000 g/ha, evaluated after 13 days, read-out: herbicidal damage SOLNI (100=total damage to plant; 0=no damage to plant). How it is done: as §1
Assay [5] deals with Avena fatua (AVEFA). Described as above. Particulars: 312 h, rate 1000 g/ha, evaluated after 13 days, read-out: herbicidal damage AVEFA (100=total damage to plant; 0=no damage to plant). How it is done:
as §1

Assay [6] relates to Alopecurus myosuroides (ALOMY). The assay is described as above. Particulars: 312 h, rate 1000 g/ha, evaluated after 13 days, read-out: herbicidal damage ALOMY (100=total damage to plant; 0=no damage to plant). How it is done:
as §1

Assay [7] deals with Amaranthus retroflexus (AMARE). The assay can be described thus: Example B pre-emergence herbicidal activity, glasshouse pot test. Particulars: 312 h, rate 1000 g/ha, evaluated after 13 days, read-out: herbicidal damage AMARE (100=total damage to plant; 0=no damage to plant). As for the experimental part:
as §1, with “Pre-Emergence” for “Post-Emergence”

Assay [8] has as its system Setaria faberi (SETFA). The description is as above. To be noted: 312 h, rate 1000 g/ha, evaluated after 13 days, read-out: herbicidal damage SETFA (100=total damage to plant; 0=no damage to plant). As for the experimental part: as §1, with “Pre-Emergence” for “Post-Emergence”
Assay [9] concerns Echinochloa crus-galli (ECHCG). The description is as above. Particulars: 312 h, rate 1000 g/ha, evaluated after 13 days, read-out: herbicidal damage ECHCG (100=total damage to plant; 0=no damage to plant). As for the experimental part: as §1, with “Pre-Emergence” for “Post-Emergence”
Assay [10] has as its system Solanum nigrum (SOLNI). The assay is described as above. Particulars: 312 h, rate 1000 g/ha, evaluated after 13 days, read-out: herbicidal damage SOLNI (100=total damage to plant; 0=no damage to plant). As for the experimental part:
as §1, with “Pre-Emergence” for “Post-Emergence”

The subject of assay [11] is Avena fatua (AVEFA). The assay is described as above. To be noted: 312 h, rate 1000 g/ha, evaluated after 13 days, read-out: herbicidal damage AVEFA (100=total damage to plant; 0=no damage to plant). How it is done:
as §1, with “Pre-Emergence” for “Post-Emergence”

In assay [12] the test system is Alopecurus myosuroides (ALOMY). The description is as above. Particulars: 312 h, rate 1000 g/ha, evaluated after 13 days, read-out: herbicidal damage ALOMY (100=total damage to plant; 0=no damage to plant). As for the experimental part:
as §1, with “Pre-Emergence” for “Post-Emergence”

On to `CCc1ccc(-c2ccc(Cl)cc2)cc1C1=C(O)CC(CC2OCCO2)CC1=O` (stereo not drawn) [Compound A-45], for which the pest or weed control at 1000 g/ha in assay [1] is 0%; in assay [2], 100%; in [3] it was 100%; in assay [4] it was 10%; in assay [5], 100%; in [6], 100%. Moreover, the pest or weed control at 1000 g/ha in assay [7] is 0%; in assay [8], 90%; in assay [9] it was 100%; in assay [10], 100%; in assay [11] it was 70%; in assay [12], 60%.

As for `Cc1ccc(-c2ccc(Cl)cc2)cc1C1=C(O)CC(CC2OCCO2)CC1=O` (stereo not drawn) [Compound A-46, 2-(4′-Chloro-4-methylbiphenyl-3-yl)-5-[1,3]dioxolan-2-ylmethylcyclohexane-1,3-dione], the pest or weed control at 1000 g/ha in [1] is 20%; in [2] it was 90%; in assay [3], 100%; in [4], 20%; in assay [5], 80%; in [6], 90%. For the same molecule, the pest or weed control at 1000 g/ha is 0% in assay [7]; 90% in assay [8]; 40% in [9]; 0% in assay [10]; 40% in [11]; 20% in assay [12].

Turning to `Cc1cc(-c2ccc(C)c(C3=C(O)CC(CC4CCOCC4)CC3=O)c2)ccc1F` (stereo not drawn) [Compound A-48], the pest or weed control at 1000 g/ha in [1] came to 10%; in assay [2] it was 80%; in assay [3], 80%; in assay [4], 0%; in assay [5], 60%; in assay [6], 60%. The pest or weed control at 1000 g/ha in [7] was 0%; in [8], 20%; in assay [9], 20%; in assay [10], 0%; in assay [11], 0%; in assay [12], 0%.

As to `Cc1ccc(-c2ccc3c(c2)OCO3)cc1C1=C(O)CC(CC2CCOCC2)CC1=O` (stereo not drawn) [Compound A-53], the pest or weed control at 1000 g/ha in assay [1] worked out at 0%; in assay [2] it was 60%; in assay [3], 70%; in assay [4], 0%; in assay [5] it was 50%; in assay [6] it was 50%. Further, the pest or weed control at 1000 g/ha in assay [7], in [8], in assay [9], in [10], in [11] and in assay [12] was 0% each time.

With `Cc1ccc(-c2ccc3c(c2)OCCO3)cc1C1=C(O)CC(CC2CCOCC2)CC1=O` (stereo not drawn) [Compound A-54], the pest or weed control at 1000 g/ha in assay [1] stood at 0%; in [2] it was 0%; in assay [3] it was 70%; in [4] it was 0%; in assay [5] it was 0%; in [6] it was 0%. The pest or weed control at 1000 g/ha in assay [7] stood at 0%; in [8] it was 0%; in [9], 0%; in assay [10], 0%; in assay [11], 10%; in assay [12] it was 60%.

For `Cc1ccc(-c2ccc(Cl)cc2)cc1C1=C(O)CC(CC2OCCCO2)CC1=O` (stereo not drawn) [Compound A-55, 2-(4′-Chloro-4-methylbiphenyl-3-yl)-5-[1,3]dioxan-2-ylmethylcyclohexane-1,3-dione], the pest or weed control at 1000 g/ha came to 0% in assay [1]; 100% in [2]; 100% in assay [3]; 0% in assay [4]; 90% in assay [5]; 90% in [6]. Moreover, the pest or weed control at 1000 g/ha in [7] worked out at 0%; in assay [8] it was 60%; in assay [9], 60%; in [10], 0%; in assay [11], 20%; in assay [12], 0%.

Turning to `Cc1ccc(-c2ccc(Cl)cc2)cc1C1=C(O)CC(CC2OCC(C)(C)CO2)CC1=O` (stereo not drawn) [Compound A-56], the pest or weed control at 1000 g/ha turned out to be 0% in assay [1]; 90% in assay [2]; 100% in assay [3]; 0% in assay [4]; 0% in assay [5]; 80% in assay [6]. For the same molecule, the pest or weed control at 1000 g/ha came out at 0% in assay [7]; 70% in assay [8]; 0% in [9]; 0% in assay [10]; 0% in assay [11]; 20% in [12].

For `CCC1(CC)COC(CC2CC(=O)C(c3cc(-c4ccc(Cl)cc4)ccc3C)=C(O)C2)OC1` (stereo not drawn) [Compound A-57], the pest or weed control at 1000 g/ha was 0% in [1]; 90% in assay [2]; 90% in assay [3]; 0% in [4]; 20% in assay [5]; 70% in assay [6]. Also, the pest or weed control at 1000 g/ha in assay [7] came out at 0%; in [8], 90%; in assay [9], 0%; in [10], 0%; in assay [11] it was 0%; in assay [12], 40%.

Take `Cc1ccc(-c2ccc(Cl)cc2)cc1C1=C(O)CC(CC2OCC3(CCOCC3)O2)CC1=O` (stereo not drawn) [Compound A-58]: the pest or weed control at 1000 g/ha in assay [1] turned out to be 0%; in assay [2], 90%; in [3], 90%; in assay [4], 0%; in assay [5] it was 40%; in assay [6], 60%. For the same molecule, the pest or weed control at 1000 g/ha in assay [7] was 0%; in assay [8] it was 30%; in assay [9] it was 60%; in [10], 0%; in assay [11], 0%; in [12], 20%.

Turning to `Cc1ccc(-c2ccc(Cl)cc2)cc1C1=C(O)CC(CC2OCC(C3CCOCC3)O2)CC1=O` (stereo not drawn) [Compound A-59], the pest or weed control at 1000 g/ha in assay [1] stood at 0%; in assay [2], 90%; in assay [3], 90%; in [4], 0%; in [5], 20%; in assay [6], 70%. The pest or weed control at 1000 g/ha in assay [7] was determined as 0%; in assay [8], 60%; in [9], 0%; in assay [10], 0%; in assay [11] it was 0%; in assay [12], 20%.

Values taken from patent publication US8735322B2, “Herbicides” (Syngenta Limited, priority 2008, dated 2014).
